Where “and” joins values, the source holds several entries; their conditions need not be identical. Equal values may be shown once. Read-outs that look alike come from different tables or passages of the source.
Columns and labels:
[1] = molecular target: P. falciparum translation (P. falciparum lysate); assay: P. falciparum in vitro translation (PfIVT) assay, lysate-based, luciferase reporter; format: biochemical, Plasmodium falciparum; conditions: for IC50: 8-point, weighted mean ± SD of two technical replicates, read-out: IC50 value (μM) PfIVT; for PfIVT inhibition at 30 μM (%): single-point screen
Description: (§1) Our P. falciparum in vitro translation (PfIVT) assay is built upon previously established assays ([14], [17]) and is summarized in Fig. 1A. In this assay, successful reconstitution of Plasmodium protein translation is reported via synthesis of a luciferase reporter. For PfIVT, two independent untranslated regions (UTRs), previously shown to promote strong levels of translation ([17]), were introduced upstream and downstream of the luciferase. The 5′ UTR from P. falciparum histidine-rich protein 3 (PfHrp3) ([18]) was introduced upstream of the reporter gene, and the 3′ UTR from P. falciparum histidine-rich protein 2 (PfHrp2) gene ([19]) was introduced downstream. For the reporter construct to support our complementary human IVT assay (HsIVT), the 5′ UTR was replaced with an internal ribosome entry site (IRES) from encephalomyocarditis virus (EMCV) ([20]) and the 3′ UTR was replaced with a poly(A) tail ([21]). […] Finally, a 30-bp poly(A) tail, present within the vector and downstream of the luciferase gene, was inserted to enhance mRNA stability ([21]).
(§2) Translationally active P. falciparum or human embryonic kidney (HEK) 293F lysates were supplemented with accessory, helper, amino acid, and energy regeneration solutions (see Materials and Methods for details). In vitro translation reactions were initiated by the addition of purified mRNA to each reaction well. Using this basic assay format, a number of parameters were assessed and optimized, namely, assay temperature, time, mRNA concentration, and reaction volume (summarized in Fig. S2 in the supplemental material). In addition, we compared the luminescence signal of the CBG firefly luciferase with CBG99, derived from the click beetle […] ([18]).
3D7 parasites were synchronized following two rounds of treatment with D-sorbitol (5%), as previously described ([40]). The hematocrit was reduced from 5% (for standard culture) to 1.5 to 2% and cultures were transferred into HYPERflasks (Corning). Fresh medium was added once or twice daily. […] Harvested red blood cells (infected) were lysed by incubation in 0.1% (wt/vol) saponin on ice for 10 min with gentle agitation. Free parasites were harvested by centrifugation (2,800 × g, 10 min, 4°C) and washed 3 times in wash buffer (WB; 100 mM potassium acetate, 2.5 mM magnesium acetate, 45 mM HEPES [pH 7.4], 250 mM sucrose, 2 mM dithiothreitol, and 15 μM leupeptin) to remove lysed red blood cell debris. The resulting pellet was resuspended in 1 volume of WB supplemented with cOmplete EDTA-free protease inhibitor cocktail (Roche; 1 tablet/20 mL) and human RNase A inhibitor (Sigma; 5 U/mL). Parasite lysis was achieved by nitrogen cavitation using a prechilled 45-mL Parr cell disruption vessel (1,500 lb/in^2, 60 min, 4°C). To clarify the lysate, it was centrifuged (10,000 × g, 15 min, 4°C), and the supernatant was collected, transferred into fresh tubes, and centrifuged (30,000 × g, 15 min, 4°C). As a quality assurance step for each lysate, the RNA content of the resulting supernatant was determined using a NanoDrop spectrophotometer (Shimadzu). Supernatants with RNA levels of >250 ng/μL were aliquoted (100 μL), flash frozen in liquid nitrogen, and stored at −80°C.

CBG99 luciferase = CBG99 luciferase (Pyrophorus plagiophthalamus, UniProt Q7M4K1); assay: Luciferase counterscreen (false-positive counterscreen); format: biochemical, click beetle
Experimental: Hits identified in our primary assay screen were assessed for their potential to interfere with the cbg99 luciferase reporter. For this counterscreen, the master mix containing all the components required for translation (as described above) was incubated for 210 min at 32°C, resulting in the in vitro translation of cbg99 luciferase. The produced luciferase was then incubated with test compounds for 5 min prior to the addition of luciferase reaction buffer. […] Hits from the primary screen were assessed as luciferase inhibitors in 8-point dose-dependent assays ranging from 30 μM to 13.7 nM (1:3 dilutions). Levels of luciferase inhibition were determined relative to the positive control.

[2] = molecular target: human translation (HEK 293F lysate); assay: Human in vitro translation (HsIVT) assay, HEK 293F lysate, luciferase reporter; format: biochemical; conditions: weighted mean ± SD of two technical replicates, read-out: IC50 value (μM) HsIVT
Description: as §1, §2
FreeStyle human embryonic kidney (HEK) 293F cells (Thermo Fisher Scientific) were grown in 500-mL polycarbonate Erlenmeyer vented flasks (Corning) containing FreeStyle 293 expression medium (Life Technologies) upon reaching a density of approximately 2 × 10^6. Cells were then centrifuged at 1,000 × g for 10 min at 4°C, the medium was discarded, and the resulting pellet was washed once in buffer II containing 20 U of human placental RNase inhibitor (Sigma-Aldrich) and cOmplete EDTA-free inhibitor cocktail (Roche) before being centrifuged at 2,800 × g for 10 min. Clarified HEK cell lysate was obtained in the same way as described for P. falciparum lysate.
PfIVT and HsIVT reactions (5 μL final volume) were performed in 384-well plates (Corning) containing 50% lysate from cells (either P. falciparum or HEK 293F), 10% amino acid solution (final concentration of 400 μM for each amino acid in 60 mM KOH; biotechrabbit), 10% energy recovery solution (final assay concentrations of 40 mM HEPES [pH 7.4], 1.5 mM ATP, 0.15 mM GTP, […] creatine phosphate, and 40 U/mL creatine phosphokinase), 10% helper solution (final assay concentrations of 200 μM cystine, 2% polyethylene glycol 3000 [PEG 3000], 1 mM spermidine, 0.5 mM folinic acid, and 15 μM leupeptin), 10% supplemental salt solution (22.5 mM HEPES [pH 7.4], 50 mM potassium acetate, 1 mM magnesium acetate, 1 mM DTT, 1 U/mL human placental RNase inhibitor, 0.1 mM leupeptin), and 10% cbg99 luciferase mRNA (3,000 ng/mL). A master mix solution containing all components was prepared on ice prior to assays, and 5 μL was dispensed into wells using an automated Integra VIAFLO 16-channel 12.5-μL pipette.

[3] = Pandemic Box hits; weighted mean ± SD of two technical replicates; read-out: IC50 value (μM) Counterscreen
[4] = Pathogen Box hits; weighted mean ± SD of two technical replicates; read-out: IC50 value (μM) Counterscreen

Sequence of CBG99 luciferase (Q7M4K1 entry or part of it): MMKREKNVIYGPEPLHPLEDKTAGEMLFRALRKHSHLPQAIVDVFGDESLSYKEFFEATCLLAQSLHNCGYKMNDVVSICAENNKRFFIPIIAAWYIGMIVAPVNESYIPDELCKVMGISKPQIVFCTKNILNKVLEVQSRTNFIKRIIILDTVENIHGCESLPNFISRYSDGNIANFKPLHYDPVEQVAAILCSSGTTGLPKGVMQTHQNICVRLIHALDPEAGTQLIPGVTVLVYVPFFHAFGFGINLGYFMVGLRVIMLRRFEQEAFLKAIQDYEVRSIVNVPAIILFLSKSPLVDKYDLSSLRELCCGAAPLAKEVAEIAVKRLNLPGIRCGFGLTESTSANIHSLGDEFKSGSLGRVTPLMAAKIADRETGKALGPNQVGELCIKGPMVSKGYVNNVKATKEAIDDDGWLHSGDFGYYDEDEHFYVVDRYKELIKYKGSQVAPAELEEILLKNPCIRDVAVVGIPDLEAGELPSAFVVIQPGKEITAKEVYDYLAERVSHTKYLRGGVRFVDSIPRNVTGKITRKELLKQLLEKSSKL

| Compound | IC50 ([1]; Pandemic Box hits) | PfIVT inhibition at 30 μM (%) ([1]; Pandemic Box) | IC50 (CBG99 luciferase; [3]) | IC50 ([2]; Pandemic Box hits) | IC50 ([1]; Pathogen Box hits) | PfIVT inhibition at 30 μM (%) ([1]; Pathogen Box) | IC50 (CBG99 luciferase; [4]) | IC50 ([2]; Pathogen Box hits) | IC50 (CBG99 luciferase; read-out: IC50 value (μM) Counterscreen; Pandemic Box hits; weighted mean ± SD of two technical replicates) | IC50 (CBG99 luciferase; read-out: IC50 value (μM) Counterscreen; Pathogen Box hits; weighted mean ± SD of two technical replicates) | activity against PfIVT at 100 μM [1] |
| --- | --- | --- | --- | --- | --- | --- | --- | --- | --- | --- | --- |
| NC[C@H]1O[C@H](O[C@H]2[C@H](O)[C@@H](O[C@H]3O[C@H](CO)[C@@H](O)[C@H](N)[C@H]3O)[C@H](N)C[C@@H]2N)[C@H](N)C[C@@H]1O [MMV002459] | 29 µM and > 30 µM | 87.3% | > 30 µM | 22 ± 0.3 µM | – | – | – | – | – | – | – |
| Cc1oncc1C(=O)Nc1ccc(C(F)(F)F)cc1 [MMV003291] | 2 ± 0.07 µM | 52.9% | 0.5 ± 0.08 µM | > 30 µM | – | – | – | – | – | – | – |
| CC(C)Nc1ncnc2c1cnn2-c1ccc(Cl)cc1 [MMV108465] | 17 ± 0.8 µM | 62.6% | 7.6 ± 0.5 µM | 23 ± 0.11 µM | – | – | – | – | – | – | – |
| CCOc1ccc(C(=O)NCCc2ccccc2)cc1 [MMV124656] | 14 ± 0.9 µM | 72.6% | 3.8 ± 0.08 µM | 17 ± 0.16 µM | – | – | – | – | – | – | – |
| Clc1cccc(-c2nnc(-c3ccccc3)o2)c1 [MMV141011] | > 30 µM | 51.8% | 10 ± 0.8 µM | > 30 µM | – | – | – | – | – | – | – |
| O=C(O)c1cc(-c2ccc(Br)cc2)nc2ccc(Cl)cc12 [MMV247764] | 14 ± 0.7 µM | 63.2% | 3.2 ± 0.06 µM | 23 ± 0.2 µM | – | – | – | – | – | – | – |
| Cc1ccc(C(=O)Nc2ccc(S(=O)(=O)O)c3cc(S(=O)(=O)O)cc(S(=O)(=O)O)c23)cc1NC(=O)c1cccc(NC(=O)Nc2cccc(C(=O)Nc3cc(C(=O)Nc4ccc(S(=O)(=O)O)c5cc(S(=O)(=O)O)cc(S(=O)(=O)O)c45)ccc3C)c2)c1 [MMV637953] | – | – | – | – | 3.1 ± 0.07 µM | 78.7% | > 30 µM | > 30 µM | – | – | – |
| COc1ccc(C(=N)N)cc1-c1cn(-c2ccc(C(=N)N)cc2)nn1 [MMV675998] | – | – | – | – | 13 ± 0.9 µM | 68.9% | > 30 µM | 18 ± 0.13 µM | – | – | – |
| Cc1c[nH]c(CCNC(=O)c2cc(-c3ccc(Cl)cc3)cs2)n1 [MMV676350] | – | – | – | – | 16 ± 0.8 µM | 65.1% | > 30 µM | 6.7 ± 0.13 µM | – | – | – |
| O=C(Nc1nc(-c2ccccn2)cs1)c1cncn1-c1ccccc1 [MMV676512] | – | – | – | – | > 30 µM | 54.2% | > 30 µM | 22 ± 0.46 µM | – | – | – |
| COc1ccc2nc(C)cc(OCC(=O)Nc3ccccc3OC)c2c1 [MMV687188] | – | – | – | – | – | 64.9% | > 30 µM | > 30 µM | – | – | – |
| NC(=O)c1cc(Br)ccc1OCCOc1ccccc1 [MMV687243] | – | – | – | – | 2.2 ± 0.08 µM | 82.5% | 0.9 ± 0.09 µM | 13 ± 0.2 µM | – | – | – |
| CCCCOC(=O)Nc1cc2[nH]c(C3CCCCC3)nc2cc1N1CCCC1 [MMV687730] | – | – | – | – | 3.9 ± 0.8 µM | 72.4% | > 30 µM | > 30 µM | – | – | – |
| N=C(N)Nc1ccc(-c2ccc(-c3ccc(N=C(N)N)c(Cl)c3)o2)cc1Cl [MMV688271] | – | – | – | – | 18 ± 0.9 µM | 65.7% | > 30 µM | 13 ± 0.16 µM | – | – | – |
| COc1cc(C2=NCCN2)cc2cc(-c3ccc(C4=NCCN4)cc3)oc12 [MMV688362] | – | – | – | – | 2.8 ± 0.08 µM | 93.5% | > 30 µM | 5.6 ± 0.04 µM | – | – | – |
| COc1cc(C2=NCCN2)ccc1-c1cn(-c2cccc(C3=NCCN3)c2)nn1 [MMV688407] | – | – | – | – | 6 ± 0.09 µM | 98.7% | > 30 µM | 5.2 ± 0.02 µM | – | – | – |
| COc1cc(C2=NCCN2)ccc1-n1cc(-c2cccc(C3=NCCN3)c2)nn1 [MMV688474] | – | – | – | – | 16 ± 0.9 µM | 78.4% | > 30 µM | 14 ± 0.07 µM | – | – | – |
| COc1ccc(C2=NCCN2)cc1-c1cn(-c2cccc(C3=NCCN3)c2)nn1 [MMV688547] | – | – | – | – | 1.8 ± 0.07 µM | 96.7% | > 30 µM | 2.7 ± 0.02 µM | – | – | – |
| CC(=O)Oc1ccccc1C(=O)Nc1ncc([N+](=O)[O-])s1 [MMV688991, nitazoxanide, reference compound] | 0.02 ± 0.007 µM | 98.3% | – | 0.04 ± 0.0003 µM | 0.02 ± 0.008 µM | 97.0% | – | 0.04 ± 0.0003 µM | 0.04 ± 0.008 µM | 0.02 ± 0.008 µM | – |
| O=C(Nc1nnc(-c2ccccc2)o1)c1ccc(F)cc1 [MMV1578578] | 3.7 ± 0.07 µM | 74.6% | 1.3 ± 0.08 µM | 10 ± 0.12 µM | – | – | – | – | – | – | – |
| CC(Cc1ccccc1)C(=O)Nc1ccc(Cl)cc1C(=O)O (stereo not shown) [MMV1579781] | 8.1 ± 0.09 µM | 72.4% | 0.5 ± 0.08 µM | > 30 µM | – | – | – | – | – | – | – |
| C(=C\c1nc2ccccc2[nH]1)/c1ccc2c(c1)OCO2 [MMV1582495] | 0.6 ± 0.07 µM | 89.9% | 1.7 ± 0.08 µM | 3.1 ± 0.04 µM | – | – | – | – | – | – | – |
| Cn1cc(NC(=O)c2cc(NC(=O)c3ccc(/C=C/c4cnc5ccccc5c4)cc3)cn2C)cc1C(=O)NCCN1CCOCC1 [MMV1634391] | 17 ± 0.6 µM | 52.4% | > 30 µM | 1.1 ± 0.01 µM | – | – | – | – | – | – | – |
| CCC[C@@H]1C[C@@H](C(=O)N[C@@H]([C@H]2O[C@H](SC)[C@H](O)[C@@H](O)[C@H]2O)[C@H](C)Cl)N(C)C1 [clindamycin, reference compound] | – | – | – | – | – | – | – | – | – | – | not active |
| C[C@H]1c2cccc(O)c2C(=O)C2=C(O)[C@]3(O)C(=O)C(C(N)=O)=C(O)[C@@H](N(C)C)[C@@H]3[C@@H](O)[C@@H]21 [doxycycline, reference compound] | – | – | – | – | – | – | – | – | – | – | not active |
